Source: US5230998A, “Method for the prescreening of drugs targeted to the V3 hypervariable loop of the HIV-1 envelope glycoprotein gp 120” (priority 1991, dated 1993)

Assays:
[1] = target: T1, HIV-1 gp120 V3 hypervariable loop (Human immunodeficiency virus type 1 group M subtype B, UniProt P03375); assay: biochemical; format: binding; conditions: excess of serum proteins in medium
T1 construct: Polystyrene plates coated with recombinant gp120 and gp160, respectively; purchased American Bio-Technologies, Inc., Cambridge, Mass; host or cells: baculovirus expression system
Experimental: Wells of 96 well polystyrene plates (Immulon 2, Dynatech Laboratories, Inc., Chantilly, Va.) were coated with synthetic peptides (200 μl; 20μg/ml in 0.1 M Tris-HCl, pH 8.8) overnight at 20° C. The peptides were from the sequence of HIV-1, clone BH 10 envelope glycoproteins gp120 and gp41 (Neurath, A. R., Strick, N., and Lee, E. Y. S. (1990), "B-cell Epitope Mapping of Human Immunodeficiency virus (HIV-1) Envelope Glycoprotein with Long (19 to 36-residue) Synthetic Peptides", J. Gen. Virol., 71., 85-95) and from V3 hypervariable loops of 21 distinct HIV-1 isolates (clones) Neurath, A. R., and Strick, N., (1990), "Confronting the Hypervariability of an Immunodominant Epitope Eliciting Virus Neutralizing Antibodies from the Envelope Glycoprotein of the Human Immunodeficiency Virus Type 1 (HIV-1)", Molec. Immunol., 27, 539-549. The latter peptides corresponded to full-length V3 loops generated by disulfide bonds between N- and C- terminal cysteine residues. After washing with 0.14 M NaCl, 0.01 M Tris, 0.02% NaN3 (TS), the wells were postcoated with a mixture of bovine serum albumin (BSA) and gelatine (10 and 2.5 mg/ml, respectively) in TS. BSA was omitted from the postcoating solution for RIA tests in which antibodies to ATA were used. Polystyrene plates coated with recombinant gp120 and gp160, respectively, (500 ng/well; from American Bio-Technologies, Inc., Cambridge, Mass. and MicroGeneSys, Inc., West Haven, Conn., respectively) were also used for RIA and ELISA tests.
To define sites on gp120/gp41 reacting with ATA, the inhibitory effect of this compound was studied by RIA tests using gp120- and gp160-coated wells, respectively, and antisera (final dilutions 1:150) against synthetic peptides from the entire sequence of gp120/gp41 of HIV-1 BH 10. The preparation and biological properties of these antisera were described elsewhere (Neurath et al., (1990), J. Gen. Virol., 71, 85-95). Each of the antisera was diluted in a mixture of fetal bovine serum and goat serum (9:1) containing 0.1% Tween 20, adjusted to pH 8. ATA (final concentration 50 μg/ml) was added in one set of assays, but was omitted from a parallel set. After incubation overnight at 25° C., the plates were washed with TS. Attached rabbit IgG was detected using ^125 I-labeled anti-rabbit IgG, as described before (Neurath et al., 1990, J. Gen. Virol., 71, 85-95). Similarly, the inhibitory effect of ATA on the reaction of peptides derived from gp120/gp41 and of peptides derived from V3 hypervariable loops from gp120 of distinct HIV-1 isolates with the respective homologous anti-peptide antisera was studied. In the latter case, antisera were diluted 1:1,000 for the assays.
(§1) The inhibitory effect of ATA and of other compounds on the reaction between antibodies with predetermined specificity and gp120 (or synthetic peptides derived from it) was determined from the formula: [formula] An analogous formula was used to calculate the percentage of inhibition from optical density readings resulting from ELISA tests.
Chemicals other than ATA were screened for inhibitory activity essentially as described above. […] Chemicals with inhibitory activity established by the respective immunoassays were screened further for antiviral activity.
Commercially available ATA is a mixture of monomers and polymers of distinct molecular masses (Gonzalez et al., (1979) Biochem. Biophys. Acta, 562, 534-545); Cushman et al., (1991), J. Chem., 34, 329-337). The monomers [molecular mass (M.W.)=422.4 daltons] were separated from the polymers. ATA (20 mg/ml in the form of free acid neutralized with 0.4 M NaOH) was dialyzed against H2 O in a dialysis membrane with a molecular mass cutoff of 500 daltons.

[2] = tested on: gp120 V3 hypervariable loop; assay: Binding of gp120 to monoclonal antibodies specific for the V3 hypervariable loop in the absence of other proteins; parameters: species or system HIV-1; conditions: 20-fold excess over gp120, absence of other proteins
From the text: The inhibitory effect of dextran sulfate on gp120-antibody binding under these conditions was confirmed. The apparently contradictory results concerning binding of dextran sulfate to gp120 obtained by different methods can probably be explained by differences in equilibrium constants defining the binding reaction of gp120 with ATA and dextran sulfate, respectively. […] The relatively weak binding of dextran sulfate to the V3 hypervariable loop may contribute to the ineffectiveness of this substance in inhibiting HIV-1 replication in vivo (Mitsuya et al., (1990), Science, 249, 1533-1544).

[3] = tested on: gp120 expressed on the surface of HIV-1-infected cells; conditions: literature; cited from earlier work
HIV-1 = conditions: literature; cited from earlier work
[4] = tested on: gp120 V3 hypervariable loop; conditions: 20-fold excess over gp120, absence of other proteins; cited from earlier work
[5] = tested on: V3 hypervariable loop peptides from gp120 from 21 distinct HIV-1 isolates (clones); assay: Inhibition of the reaction of V3 hypervariable loop peptides from 21 HIV-1 isolates with homologous anti-peptide antisera; format: binding; conditions: 21 HIV-1 isolates (clones); antisera 1:1,000; FIG. 7A, 7B
From the text: FIGS. 7A and 7B are bar graphs depicting the inhibitory effect of deuteroporphyrin IX,2,4 (4,2) hydroxyethylvinyl (FIG. 7A) and of meso-tetra(4-carboxyphenyl)porphine (FIG. 7B) on the reaction of full-length V3 hypervariable loop peptides from gp120 from 21 distinct HIV-1 isolates (clones) with homologous anti-peptide antisera. Peptide coated wells of polystyrene plates were reacted in the presence and absence of the inhibitory compounds with the respective rabbit antisera diluted 1:1,000, and the attachment of rabbit IgG was subsequently determined using ^125 I-labeled anti-rabbit IgG. […]
(§2) To define sites on gp120/gp41 reacting with ATA, the inhibitory effect of this compound was studied by RIA tests using gp120- and gp160-coated wells, respectively, and antisera (final dilutions 1:150) against synthetic peptides from the entire sequence of gp120/gp41 of HIV-1 BH 10. […] Attached rabbit IgG was detected using ^125 I-labeled anti-rabbit IgG, as described before (Neurath et al., 1990, J. Gen. Virol., 71, 85-95). […]
as §1

[6] = tested on: HIV-1 isolates IIIB, MN, SF2 and RF; assay: Antiviral activity of porphyrin derivatives for distinct HIV-1 isolates in T-lymphocytic MT-2 cells (FIG. 12B); format: cell-based
Experimental: (§3) FIG. 12A and FIG. 12B are graphs depicting antiviral activity of selected porphyrin derivatives for distinct HIV-1 isolates in T-lymphocytic (MT-2) (FIG. 12B) and a promonocytic (U937) (FIG. 12A) cell lines. […] Therefore, the antiviral activity against HIV-1 RF could not be tested in this cell line. Note that the higher the value of EC50, the less efficient is the drug for inhibiting HIV-1 replication.
(§4) Four of the porphyrin derivatives (see FIG. 12) were tested for their inhibiting activity and the replication of four distinct HIV-1 isolates: IIIB, MN, SF2 and RF in two different cell lines, U937 and MT-2.

V3 peptide from HIV-1 SC = target: T2, V3 peptide from HIV-1 SC (Human immunodeficiency virus type 1 (SC ISOLATE), UniProt P05878); assay: Inhibition of the reaction of antibodies with the V3 peptide from HIV-1 SC (FIG. 7B); format: binding; conditions: as compared with HXB-2 and HXB-3 V3 peptides
T2 construct: cut from Env gp160
From the text: FIGS. 7A and 7B are bar graphs depicting the inhibitory effect of deuteroporphyrin IX,2,4 (4,2) hydroxyethylvinyl (FIG. 7A) and of meso-tetra(4-carboxyphenyl)porphine (FIG. 7B) on the reaction of full-length V3 hypervariable loop peptides from gp120 from 21 distinct HIV-1 isolates (clones) with homologous anti-peptide antisera. Peptide coated wells of polystyrene plates were reacted in the presence and absence of the inhibitory compounds with the respective rabbit antisera diluted 1:1,000, and the attachment of rabbit IgG was subsequently determined using ^125 I-labeled anti-rabbit IgG.
as §2, §1

[7] = tested on: HIV-1 isolates IIIB, MN, SF2 and RF; assay: Antiviral activity of porphyrin derivatives for distinct HIV-1 isolates in promonocytic U937 cells (FIG. 12A); format: cell-based
Experimental: as §3, §4

T2 sequence (P05878 296-330): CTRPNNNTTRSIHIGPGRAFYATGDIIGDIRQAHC

| Compound | reaction with the V3 hypervariable loop as determined by RIA (ELISA) tests [1] | inhibitory effect on gp120-antibody binding [2] | inhibition of the reaction of gp120 on infected cells with monoclonal anti-gp120 antibodies [3] | inhibition of HIV-1 replication in vivo (HIV-1) | blocking of binding of gp120 to monoclonal antibodies [4] | inhibition of interaction between V3 hypervariable loop peptides and homologous antibodies [5] | inhibition of HIV-1 replication in MT-2 cells [6] | inhibitory activity on the reaction of antibodies with the V3 peptide (V3 peptide from HIV-1 SC) | inhibition of HIV-1 replication in U937 cells [7] |
| --- | --- | --- | --- | --- | --- | --- | --- | --- | --- |
| dextran sulfate | did not react with the V3 hypervariable loop | confirmed | inhibit the reaction of gp120 expressed on the surface of HIV-1-infected cells with monoclonal anti-gp120 antibodies | ineffectiveness | blocked |  |  |  |  |
| O=C(O)c1ccc(-c2c3nc(c(-c4ccc(C(=O)O)cc4)c4ccc([nH]4)c(-c4ccc(C(=O)O)cc4)c4nc(c(-c5ccc(C(=O)O)cc5)c5ccc2[nH]5)C=C4)C=C3)cc1 [substance #160, meso-tetra (4-carboxyphenyl) porphine] |  |  |  |  |  | inhibited the interaction between V hypervariable loop peptides and homologous antibodies corresponding to all 21 HIV-1 isolates (clones) tested | most effective agent with broad specificity | relatively low inhibitory activity | most effective agent with broad specificity |
| deuteroporphyrin IX, 2,4 (4,2) hydroxy-ethyl vinyl [substance #151] |  |  |  |  |  | inhibited the interaction between V hypervariable loop peptides and homologous antibodies corresponding to all 21 HIV-1 isolates (clones) tested |  |  |  |
